For one assay, the target named is NR1-1a/NR2B receptors (Homo sapiens, UniProt Q05586+Q13224). As to the kind of experiment: Two electrode voltage clamp of Xenopus oocytes expressing NR1-1a and NR2B NMDA receptor subunits; inhibition of glutamate/glycine current at pH 6.9 and 7.6. As to conditions: for Fold increase in potency between pH 7.6 and 6.9: IC50 at pH 7.6/IC50 at pH 6.9; for IC50: pH 6.9, NR1-1a/NR2B in Xenopus oocytes, read-out: IC50 at pH 6.9. It is filed as cell-based. Here is the method:
Current recordings were obtained using two electrode voltage clamp of Xenopus oocytes injected with cRNA encoding the NR1-1a and NR2B NMDA receptor subunits. Cells were injected with 5-15 ng of cRNA encoding NR1-1a in combination with a 2-3 fold greater amount of either NR2B cRNA. Injected oocytes were maintained at 17° C. in Barths solution containing penicillin (10 U/ml) and streptomycin (10 μg/ml) for 2-6 days, after which recordings were made at room temperature from oocytes continuously perfused in a standard frog Ringers solution. This solution was composed of (in mM): 90 NaCl, 1.0 KCl, 10 Hepes and 0.5 BaCl2. Recording pipettes were filled with 0.3M KCl. Saturating concentrations of glutamate (20-50 μM) and glycine (20 μM) were used to activate the receptor. Drugs were prepared daily from frozen stock solutions in DMSO. Glutamate/glycine-activated currents were typically elicited from a holding potential of −20 to −40 mV. Current signals were digitized and analyzed using custom acquisition software. To study the effects of pH, oocytes were perfused with Ringer's solution at the desired pH until a stable baseline had been reached before subsequent agonist application.
Oocytes in which the glutamate/glycine current was not stable or in which the baseline holding current drifted were discarded. Inhibition of the glutamate/glycine current by drugs was examined by applying 1-4 different concentrations of the antagonist to each oocyte. […] On average recordings were made from 14 oocytes per condition.

The next assay has as its system Male Sprague-Dawley rats. Kind of assay: Maximal electroshock seizures, duration of tonic hindlimb extension (THE). It is filed as in vivo. The following applies: for THE in drug (% control): rat, 30 mg/kg, mean ± sem. The text has this:
Methods: Male Sprague-Dawley rats weighing less than 150 gm were used for these experiments. Maximal electroshock seizures were produced by delivering 200 ms biphasic square-wave pulses of 200 mA at 60 Hz via corneal electrodes, using a Wahlquist Constant Current Source (Salt Lake City, Utah). A drop of 0.9% lidocaine in saline was applied to each cornea 30 s before stimulus delivery to minimize pain. Automatic timers recorded the durations of tonic hindlimb flexion, tonic hindlimb extension (THE), clonus and flaccidity that sequentially followed stimulus delivery. The duration of THE was used as an index of seizure severity. Animals were stimulated on three consecutive days, referred to as “control”, “test”, and “recovery”. […] On “test” day, each animal received either vehicle or drug at varying intervals prior to stimulation. Reversibility of drug effect on THE was ascertained by response to stimulation administered one day after the “test” session. The values shown in the table are the mean (±sem) THE duration in the test condition, as a percentage of the mean of control and recovery conditions. Four rats were used for each time point.
P<0.001 for difference from vehicle by one-way ANOVA with Dunnett's post hoc test. For all other conditions P>0.05.
(In general: The maximal electroshock test induces tonic seizures with an electrical stimulus.)

Assay [1] has as its target NR2B subunit-containing recombinant NMDA receptors (Homo sapiens, UniProt Q05586+Q13224). As to conditions: pH 6.8 compared to pH 7.5; cited from earlier work.
Setting [2] is: 15 min from drug injection to electroshock.
Where [3] appears, read: 30 min from drug injection to electroshock.
The mark [4] stands for this setting: 60 min from drug injection to electroshock.

The structures appear in SMILES notation. Where two headings read alike, the source gives them in different places.

NR1-1a/NR2B receptors, sequence (Q13224 27-1484, other chains not shown): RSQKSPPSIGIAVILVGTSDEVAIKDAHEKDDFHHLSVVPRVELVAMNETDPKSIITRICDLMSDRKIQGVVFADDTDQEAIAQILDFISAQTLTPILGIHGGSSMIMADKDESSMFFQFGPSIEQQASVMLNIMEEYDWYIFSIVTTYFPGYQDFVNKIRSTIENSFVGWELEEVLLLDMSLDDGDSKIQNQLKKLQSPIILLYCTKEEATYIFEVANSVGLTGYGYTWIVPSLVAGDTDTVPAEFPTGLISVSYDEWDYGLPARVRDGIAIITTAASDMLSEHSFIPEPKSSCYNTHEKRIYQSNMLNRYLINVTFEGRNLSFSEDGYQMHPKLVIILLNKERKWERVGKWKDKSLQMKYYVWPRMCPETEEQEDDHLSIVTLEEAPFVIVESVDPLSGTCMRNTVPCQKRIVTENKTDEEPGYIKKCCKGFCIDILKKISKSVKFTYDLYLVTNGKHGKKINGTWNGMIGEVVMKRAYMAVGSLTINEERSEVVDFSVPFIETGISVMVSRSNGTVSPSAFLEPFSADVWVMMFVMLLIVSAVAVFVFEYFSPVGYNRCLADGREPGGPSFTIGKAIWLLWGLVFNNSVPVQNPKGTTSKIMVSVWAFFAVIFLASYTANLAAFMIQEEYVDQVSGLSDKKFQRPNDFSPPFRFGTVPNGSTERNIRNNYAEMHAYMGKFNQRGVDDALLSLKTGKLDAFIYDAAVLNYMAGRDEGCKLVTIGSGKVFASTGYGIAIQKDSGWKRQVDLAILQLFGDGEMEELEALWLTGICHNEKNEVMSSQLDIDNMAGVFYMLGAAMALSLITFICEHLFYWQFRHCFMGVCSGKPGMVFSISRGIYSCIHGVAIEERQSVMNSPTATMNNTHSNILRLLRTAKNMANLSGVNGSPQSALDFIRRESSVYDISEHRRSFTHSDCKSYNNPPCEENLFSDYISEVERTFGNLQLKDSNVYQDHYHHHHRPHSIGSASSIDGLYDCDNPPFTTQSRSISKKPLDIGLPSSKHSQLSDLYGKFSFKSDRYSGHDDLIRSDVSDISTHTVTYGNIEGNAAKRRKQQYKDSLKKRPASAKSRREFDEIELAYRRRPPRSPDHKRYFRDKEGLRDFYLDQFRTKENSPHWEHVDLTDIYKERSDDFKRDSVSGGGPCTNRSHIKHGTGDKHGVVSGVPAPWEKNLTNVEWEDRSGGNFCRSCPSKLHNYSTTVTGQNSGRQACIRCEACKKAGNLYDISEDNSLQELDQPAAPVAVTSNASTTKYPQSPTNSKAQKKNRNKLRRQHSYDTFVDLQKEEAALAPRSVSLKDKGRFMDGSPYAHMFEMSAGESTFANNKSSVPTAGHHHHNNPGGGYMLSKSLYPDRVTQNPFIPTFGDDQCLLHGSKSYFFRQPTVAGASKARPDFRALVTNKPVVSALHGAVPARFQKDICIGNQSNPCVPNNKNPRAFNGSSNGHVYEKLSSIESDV
NR2B subunit-containing recombinant NMDA receptors, sequence (Q13224 27-1484, other chains not shown): as above

As to `CS(=O)(=O)Nc1ccc(OC[C@@H](O)CN(CCO)CCc2ccc(Cl)c(Cl)c2)cc1` [93-8 (S), (S)-1-(4-methanesulphonamidephenoxy)-e-(N-(2-hydroxyethyl)-3,4-dichlorophenylethylamino)-2-propanol], the “Fold increase in potency between pH 7.6 and 6.9” value on NR1-1a/NR2B receptors (Table A) and at NR1-1a/NR2B receptors (Table C) was 11.3 in each case. For the same compound, the half-maximal inhibitory concentration (IC50) at NR1-1a/NR2B receptors (Table A) was found to be 29 nM. Further, the Anticonvulsive effects result in the assay on Male Sprague-Dawley rats (rat maximal electroshock, summary in words) is given as “Anticonvulsive effects”. Also, the “THE in drug (% control)” value was 91.9 ± 0.4 % control in the assay on Male Sprague-Dawley rats (setting [2]), 85.7 ± 2.8 % control in the assay on Male Sprague-Dawley rats (setting [3]) and 59.3 ± 4.1 % control in the assay on Male Sprague-Dawley rats (setting [4]).
Turning to `CS(=O)(=O)Nc1ccc(OCC2CN(CCc3ccc(Cl)c(Cl)c3)C(=O)O2)cc1` [93-27 (S), N-(3,4-dichlorophenyl)ethyl-5-(4-methanesulphonamidophenoxy) methyl-oxazolidine-2-one], the “Fold increase in potency between pH 7.6 and 6.9” value stood at 0.95 on NR1-1a/NR2B receptors (Table B) and 0.954 at NR1-1a/NR2B receptors (Table C). At NR1-1a/NR2B receptors (Table B), the 50% inhibitory concentration (IC50) amounted to 338 nM. Also, the “THE in drug (% control)” value is given as 97.0 ± 0.6 % control in the assay on Male Sprague-Dawley rats (setting [2]), 95.6 ± 1.3 % control in the assay with Male Sprague-Dawley rats (setting [3]) and 89.7 ± 0.8 % control with Male Sprague-Dawley rats (setting [4]).
Turning to `CC(C(O)c1ccc(O)cc1)N1CCC(Cc2ccccc2)CC1` (centres unmarked) [Ifenprodil], in assay [1], the “potency for inhibition of NR2B subunit-containing recombinant NMDA receptors as a function of pH” value was “enhanced at pH 6.8 compared to pH 7.5”.

Usually IC50 stands for the midpoint of a concentration-inhibition curve.

Source of the values: patent US7375136B2, “pH-dependent NMDA receptor antagonists” (Emory University, priority 2001, dated 2008).
